The Deep4Chem optical property database

Test: solvent given as SMILES

## c1ccc2c(c1)Oc1ccccc1C21c2cc(-c3ccc4ccc5cccc6ccc3c4c56)ccc2-c2ccc(-c3ccc4ccc5cccc6ccc3c4c56)cc21
In ClC(Cl)Cl
  absorption maximum: 364 nm

## CN(C)c1ccc(C#Cc2ccc(-c3cc(N(C)C)c4ccccc4c3)cc2)cc1
In ClCCl
  absorption maximum: 352 nm

## CCCCN(CCCC)c1ccc2c(c1)C#CC#Cc1cc(N(CCCC)CCCC)ccc1C#Cc1cc(c3cc1C#Cc1ccc(C(F)(F)F)cc1C#CC#Cc1cc(C(F)(F)F)ccc1C#C3)C#C2
In ClCCl
  absorption maximum: 466 nm

## N#C/C(=C\c1ccncc1)c1nc(-c2ccc(Cl)cc2)cs1
In CC#N
  absorption maximum: 357 nm

## N#Cc1ccc(/C=C/c2ncc(-c3ccccc3)o2)cc1
In ClCCl
  absorption maximum: 360 nm

## CCCCCCCN1C(=CC2=C([O-])C(=CC3=[N+](CCCCCCC)c4ccccc4C3(C)C)C2=C(C#N)C#N)Sc2ccccc21
In C1COCCO1
  absorption maximum: 694 nm
In CCO
  absorption maximum: 681 nm
In CN(C)C=O
  absorption maximum: 681 nm
In ClC(Cl)Cl
  absorption maximum: 690 nm

## CC(C)=N[O-]
In CCO
  absorption maximum: 265 nm

## C[Si]1(c2ccccc2)C(c2ccc3c(c2)c2ccccc2n3-c2ccccc2)=C(c2ccccc2)C(c2ccccc2)=C1c1ccc2c(c1)c1ccccc1n2-c1ccccc1
In C1CCOC1
  absorption maximum: 404 nm

## c1ccc(-c2nc3c4ccccc4c4ccccc4c3n2-c2ccccc2)cc1
In C1CCOC1
  absorption maximum: 362 nm

## CCCCCCn1c(=O)c2c3[nH]c4cc5sc6c([nH]c5cc4sc3c3c(=O)n(CCCCCC)c(=O)c3c2c1=O)c1c(=O)n(CCCCCC)c(=O)c1c1c(=O)n(CCCCCC)c(=O)c61
In ClCCl
  absorption maximum: 549 nm

## O=C([O-])c1ccccc1C1=c2cc3c4c(c2Oc2c1cc1c5c2CCCN5CCC1)CCC[N+]=4CCC3
In CC#N
  absorption maximum: 577 nm
In CCO
  absorption maximum: 564 nm
In CN(C)C=O
  absorption maximum: 580 nm
In O
  absorption maximum: 575 nm

## COc1ccc(N(c2ccc(OC)cc2)c2ccc3ccc4c(B(c5c(C)cc(C)cc5C)c5c(C)cc(C)cc5C)ccc5ccc2c3c54)cc1
In C1CCOC1
  absorption maximum: 465 nm
In CC(C)=O
  absorption maximum: 459 nm
In CCCCCC
  absorption maximum: 463 nm
In Cc1ccccc1
  absorption maximum: 469 nm
In ClC(Cl)Cl
  absorption maximum: 461 nm
In ClCCl
  absorption maximum: 461 nm

## O=P1(c2ccccc2)c2ccc(N3c4ccccc4Oc4ccccc43)cc2-c2cc(N3c4ccccc4Oc4ccccc43)ccc21
In Cc1ccccc1
  absorption maximum: 405 nm
In c1ccc2c(c1)c1ccccc1n2-c1ccc(-c2ccc(-n3c4ccccc4c4ccccc43)cc2)cc1
  absorption maximum: 404.2 nm

## O=P1(c2ccccc2)C(c2ccccc2)=Cc2cc3ccccc3cc21 (stereo unspecified)
In ClCCl
  absorption maximum: 387 nm

## O=[N+]([O-])c1ccc(C#Cc2ccc([N+](=O)[O-])cc2)cc1
In CO
  absorption maximum: 329 nm
In ClCCl
  absorption maximum: 335 nm

## CC(C)(C)c1ccc2c(c1)c1cc(C(C)(C)C)ccc1n2-c1ccc2oc3nc4oc5cc(C(F)(F)F)ccc5c4cc3c2c1
In ClC(Cl)Cl
  absorption maximum: 346 nm

## CN1CCN(c2ccc3c4c(cccc24)C(=O)c2ccccc2-3)CC1
In C1CCCCC1
  absorption maximum: 428.2 nm
In C1CCOC1
  absorption maximum: 446 nm
In C1COCCO1
  absorption maximum: 442.8 nm
In CC1COC(=O)O1
  absorption maximum: 459 nm
In CC#N
  absorption maximum: 453.8 nm
In CC(C)=O
  absorption maximum: 449.6 nm
In CCCCCCCCO
  absorption maximum: 451 nm
In CCCCCO
  absorption maximum: 456.4 nm
In CCCCO
  absorption maximum: 454.6 nm
In CCCO
  absorption maximum: 455.4 nm
In CCO
  absorption maximum: 455.4 nm
In CCOC(C)=O
  absorption maximum: 443 nm
In CN(C)C=O
  absorption maximum: 454.4 nm
In CO
  absorption maximum: 456.4 nm
In CS(C)=O
  absorption maximum: 460.8 nm
In Cc1ccccc1
  absorption maximum: 443.8 nm
In ClC(Cl)Cl
  absorption maximum: 455.4 nm

## COc1ccc([C@@H]2C[C@](O)(c3ccccn3)C[C@](O)(c3ccccn3)[C@H]2C(=O)c2ccc(N(c3ccccc3)c3ccccc3)cc2)cc1
In C1CCOC1
  absorption maximum: 366 nm
In CC#N
  absorption maximum: 366 nm
In CCO
  absorption maximum: 366 nm
In CCOC(C)=O
  absorption maximum: 366 nm
In CN(C)C=O
  absorption maximum: 358 nm
In ClCCl
  absorption maximum: 370 nm
In c1ccccc1
  absorption maximum: 370 nm

## O=[N+]([O-])c1ccc(S(=O)(=O)Nc2ccc(C#Cc3ccc4ccc5ccc(C#Cc6ccc(NS(=O)(=O)c7ccc([N+](=O)[O-])cc7[N+](=O)[O-])cc6)c6ccc3c4c56)cc2)c([N+](=O)[O-])c1
In CO
  absorption maximum: 402 nm

## O=C1OC(c2ccccc2)=N/C1=C\c1ccccc1
In C1COCCO1
  absorption maximum: 363 nm

## c1ccc(-n2c3ccccc3c3cc(-c4cccc(-n5c6ccccc6c6c7sc8ccccc8c7ccc65)c4)ccc32)cc1
In ClCCl
  absorption maximum: 355 nm
